Experiments:
[1] = Within-participant escalating dose trial Part B (20-120 mg titration): pharmacokinetics; details: titrated dosing schedule
Protocol: Each participant completed 3 study periods: Screening, Treatment period (12 or 31 days), and Safety follow-up.
Participants were healthy males and females between the ages of 18 and 55 years old.
In Part B, a randomized controlled trial was conducted.

[2] = Phase 1 SAD/MAD safety and tolerability of formulation 3; type: in vivo, human; details: single 60 mg without titration, 6 healthy volunteers
Protocol: This was a 2-part, Phase 1 double blind, placebo controlled trial to assess the safety, tolerability, pharmacokinetics, and pharmacodynamics (including the KSS, the KDT, the SQSQ and 24-hour EEG recordings), of single, ascending (Part A: 20, 40, and 60 mg) and multiple, ascending (Part B: 20 and 40 mg for 8 days) doses of the 20 mg tablet (formulation 3) in healthy participants. […] Variability in Cmax and AUC increased with increasing dose following a single oral dose of the 20 mg tablet formulation (formulation 3) (FIG. 16).
Adverse events for the doses of 20 and 40 mg were transient and occurred at a rate similar to placebo. The following TEAEs were observed, all of which were mild to moderate: […]

[3] = test system: adult patients with essential tremor; test: Essential tremor trial Example 16 Part B randomized withdrawal phase: TETRAS, mADL, ADL efficacy; type: in vivo, human; set-up: TETRAS mADL Mean CFB (SD): unit not given here; details: for TETRAS ADL LS Mean CFB / TETRAS CULS LS Mean CFB / TETRAS PS Item 6: Archimedes Spiral (Left) LS Mean CFB / TETRAS PS Item 6: Archimedes Spiral (Right) LS Mean CFB / TETRAS PS Item 7: Handwriting LS Mean CFB / TETRAS PSTS LS Mean CFB / TETRAS ULS LS Mean CFB / TETRAS mADL LS Mean CFB: change from randomization baseline; for TETRAS ADL Mean CFB (SD) / TETRAS CULS CTA (%) / TETRAS PS Item 6: Archimedes Spiral (Left) CTA (%) / TETRAS PS Item 6: Archimedes Spiral (Right) CTA (%) / TETRAS PS Item 7: Handwriting CTA (%) / TETRAS PSTS CTA (%) / TETRAS ULS CTA (%) / TETRAS mADL Mean CFB (SD): from randomization baseline
Protocol: A two part trial (Part A and Part B as described below) was conducted to study the efficacy, safety, tolerability, and pharmacokinetics of the compound of formula (I) in adult patients with essential tremor (ET).
Participants were males and females ages 18 and older with a clinical diagnosis of ET. Participants who have a history of any other medical, neurological, or psychiatric condition that may explain or cause tremor were excluded. Participants who have previously received treatment with formula (I) in any clinical trial (including Part A of the current trial for participants enrolling in Part B) were also excluded.
In Part B, an open label titration phase and a randomized, double-blind, placebo-controlled trial was conducted.

[4] = test system: sigma band EEG power during NREM sleep; test: EEG/PSG: sigma band EEG power during NREM sleep; type: in vivo, human; details: for NREM Sigma Power Ratio from Baseline / NREM sigma power from baseline, LS Means: N = 10
Protocol: The effects of multiple doses of a wider dose range (Part A: 5, 10, 20 mg; Part B: 60, 80, 100, 120 mg) on sigma band EEG power during NREM sleep were also evaluated as part of the protocol described in Example 11, above. 24-hour EEG/PSG recordings were performed the day before dosing (baseline day) and after dosing on Days 4, 8, and 12 (for Part A) or Days 10, 17, 24, and 31 (for Part B). Part B also included placebo-treated participants for statistical comparisons.
The pharmacokinetic/pharmacodynamic (PKPD) effects of administration a compound of formula (II) on EEG were also evaluated. The recording of the NREM sigma absolute power was reported as a single summary value of a single night of sleep following each dose on pre-specified days (baseline and Days 4, 8 and 12 for Example 11, Part A and Days 10, 17, 24, and 31 for Part B, as set forth in Tables 22 and 23, above. Each NREM sigma absolute power value was paired with a model predicted average plasma concentration (Cave) that corresponded to the 24-hour EEG recording period on the respective study day. For example, if the period of EEG recording for an individual was from 6 am on Day 4 to 6 am on Day 5, then the corresponding Cave was calculated as the average of the individual's model-predicted concentrations (sampled every 30 minutes) from that same time period. The resulting PKPD data were analyzed in a mixed-effects modelling framework using NONlinear Mixed Effects Modeling (NONMEM) software. The change from baseline NREM sigma absolute power was specified as the outcome and the primary explanatory variable was the Cave of a compound of formula (II).
The population PK model was used to generate Cave for NREM sigma absolute power and concentrations for EO and EC gamma absolute power. For NREM sigma absolute power, the Cave was computed for the final day of each dose level over the EEG collection interval. For EO and EC gamma absolute power, concentrations at 4 hours post-dose and 23.75 hours post-dose were generated on the final day of each dose level. The final population PKPD models for NREM sigma absolute power and EO and EC gamma absolute power were then used to generate corresponding EEG responses.

[5] = Formula (I) group, Day 70 follow-up
[6] = Part B - RWD, RWAS, Formula (I) group, Day 56
[7] = Part B - RWD, RWAS, Formula (I) group, Day 70
[8] = Part B - RWD, RWAS, Formula (I) group, Randomization Baseline (Day 42 post-dose value)
[9] = Part B RWD, Formula (I) group, Day 56

## CC(C)(C)NC(=O)CN1CCC(CNC(=O)c2cc(F)cc(Cl)c2)CC1 [compound of formula (I), N-((1-(2-(tert-butylamino)-2-oxoethyl)piperidin-4-yl)methyl)-3-chloro-5-fluorobenzamide]
[1]
  increase of Cmax and AUC24 above values of a lower dosage not tolerated without titration: 2-3 fold
[2]
  tolerability: not tolerated
[3]; [5]
  TETRAS ADL score, LS mean change from randomization baseline (Day 42): 3.267
  TETRAS combined upper limb score, LS mean change from randomization baseline (Day 42): 3.156
  increase in combined upper limb tremor amplitude: 28.1%
  increase in upper limb tremor amplitude: 27.2%
  mADL score, LS mean change from randomization baseline (Day 42): 4.353
[3]; Formula (I) group, Day 70 follow-up (2 weeks after cessation)
  TETRAS upper limb score, LS mean change from randomization baseline (Day 42): 1.653
[3]; Part B - RWD, RWAS, Day 56
  TETRAS ADL LS Mean Difference: Formula (I) - Placebo (95% CI): −9.578 (−18.9020, −0.2546)
  TETRAS CULS LS Mean Difference: Formula (I) - Placebo (95% CI): −1.896 (−8.7365, 4.9451)
  TETRAS PSTS LS Mean Difference: Formula (I) - Placebo (95% CI): −3.025 (−11.2090, 5.1595)
  TETRAS ULS LS Mean Difference: Formula (I) - Placebo (95% CI): −0.253 (−4.9188, 4.4129)
  TETRAS mADL LS Mean Difference: Formula (I) - Placebo (95% CI): −8.439 (−15.3856, −1.4916)
[3]; Part B - RWD, RWAS, Day 70
  TETRAS ADL LS Mean Difference: Formula (I) - Placebo (95% CI): −5.988 (−16.8132, 4.8377)
  TETRAS CULS LS Mean Difference: Formula (I) - Placebo (95% CI): −0.964 (−6.5938, 4.6660)
  TETRAS PSTS LS Mean Difference: Formula (I) - Placebo (95% CI): −1.277 (−7.5286, 4.9741)
  TETRAS ULS LS Mean Difference: Formula (I) - Placebo (95% CI): −0.316 (−3.3765, 2.7441)
  TETRAS mADL LS Mean Difference: Formula (I) - Placebo (95% CI): −3.236 (−12.3264, 5.8538)
[3]; [6]
  TETRAS ADL LS Mean CFB: 0.877
  TETRAS CULS LS Mean CFB: 1.525
  TETRAS PS Item 6: Archimedes Spiral (Left) LS Mean CFB: 0.394
  TETRAS PS Item 6: Archimedes Spiral (Right) LS Mean CFB: 0.087
  TETRAS PS Item 7: Handwriting LS Mean CFB: 0.037
  TETRAS PSTS LS Mean CFB: 1.174
  TETRAS ULS LS Mean CFB: 0.716
  TETRAS mADL LS Mean CFB: 1.350
  TETRAS ADL Mean CFB (SD): 5.84 (16.276)
  TETRAS CULS CTA (%): 14.7%
  TETRAS PS Item 6: Archimedes Spiral (Left) CTA (%): 36.5%
  TETRAS PS Item 6: Archimedes Spiral (Right) CTA (%): 9.5%
  TETRAS PS Item 7: Handwriting CTA (%): 4.2%
  TETRAS PSTS CTA (%): 8.1%
  TETRAS ULS CTA (%): 12.8%
  TETRAS mADL Mean CFB (SD): 8.45 (34.208)
[3]; [7]
  TETRAS ADL LS Mean CFB: 3.267
  TETRAS CULS LS Mean CFB: 3.156
  TETRAS PS Item 6: Archimedes Spiral (Left) LS Mean CFB: 0.384
  TETRAS PS Item 6: Archimedes Spiral (Right) LS Mean CFB: 0.353
  TETRAS PS Item 7: Handwriting LS Mean CFB: 0.189
  TETRAS PSTS LS Mean CFB: 3.422
  TETRAS ULS LS Mean CFB: 1.653
  TETRAS mADL LS Mean CFB: 4.353
  TETRAS ADL Mean CFB (SD): 18.73 (24.838)
  TETRAS CULS CTA (%): 28.1%
  TETRAS PS Item 6: Archimedes Spiral (Left) CTA (%): 35.8%
  TETRAS PS Item 6: Archimedes Spiral (Right) CTA (%): 33.4%
  TETRAS PS Item 7: Handwriting CTA (%): 19.6%
  TETRAS PSTS CTA (%): 21.8%
  TETRAS ULS CTA (%): 27.2%
  TETRAS mADL Mean CFB (SD): 87.71 (126.281)
[3]; [8]
  TETRAS ADL, Mean: 22.17
  TETRAS CULS, Mean: 19.33
  TETRAS PS Item 6: Archimedes Spiral (Left), Mean: 1.75
  TETRAS PS Item 6: Archimedes Spiral (Right), Mean: 1.75
  TETRAS PS Item 7: Handwriting, Mean: 1.75
  TETRAS PSTS, Mean: 22.83
  TETRAS ULS, Mean: 10.25
  TETRAS mADL (TETRAS modified total score), Mean: 12.17
[3]; Part B RWD, Day 56
  TETRAS ADL score, LS mean difference (Formula (I)—Placebo): −9.578
  TETRAS combined upper limb score, LS mean difference (Formula (I)—Placebo): −1.896
  TETRAS upper limb score, LS mean difference (Formula (I)—Placebo): −0.253
  mADL total score, LS mean difference (Formula (I)—Placebo): −8.439
[3]; [9]
  TETRAS ADL score, LS mean change from randomization baseline (Day 42): 0.877
  TETRAS combined upper limb score, LS mean change from randomization baseline (Day 42): 1.525
  TETRAS upper limb score, LS mean change from randomization baseline (Day 42): 0.716
  increase in combined upper limb tremor amplitude: 14.7%
  increase in upper limb tremor amplitude: 12.8%
  mADL total score, LS mean change from randomization baseline (Day 42): 1.350

## CC(C)(C)NC(=O)CN1CCC(CNC(=O)c2cc(F)cc(Cl)c2)CC1.Cl [compound of formula (II), N-((1-(2-(tert-butylamino)-2-oxoethyl)piperidin-4-yl)methyl)-3-chloro-5-fluorobenzamide hydrochloride]
[4]; 5-120 mg, plateaued after Day 17 (80 mg)
  sigma band EEG power during NREM sleep, change from baseline: dose-dependent decrease
[4]; Day 10
  NREM sigma power, Formula (II) v. Placebo Difference: −0.597
  NREM sigma power, Formula (II) v. Placebo Ratio: 0.550
[4]; Day 10 (60 mg)
  NREM Sigma Power Ratio from Baseline: 0.581
  NREM sigma power from baseline, LS Means: −0.542
[4]; Day 17
  NREM sigma power, Formula (II) v. Placebo Difference: −0.697
  NREM sigma power, Formula (II) v. Placebo Ratio: 0.498
[4]; Day 17 (80 mg)
  NREM Sigma Power Ratio from Baseline: 0.646
  NREM sigma power from baseline, LS Means: −0.437
[4]; Day 24
  NREM sigma power, Formula (II) v. Placebo Difference: −0.729
  NREM sigma power, Formula (II) v. Placebo Ratio: 0.482
[4]; Day 24 (100 mg)
  NREM Sigma Power Ratio from Baseline: 0.498
  NREM sigma power from baseline, LS Means: −0.698
[4]; Day 31
  NREM sigma power, Formula (II) v. Placebo Difference: −0.679
  NREM sigma power, Formula (II) v. Placebo Ratio: 0.507
[4]; Day 31 (120 mg)
  NREM Sigma Power Ratio from Baseline: 0.574
  NREM sigma power from baseline, LS Means: −0.556

Source: patent publication US20250295646A1, “METHODS OF USE OF T-TYPE CALCIUM CHANNEL MODULATORS” (Praxis Precision Medicines, Inc., priority 2022, published 2025)
